pEC50: −log10 of the molar value. Read-outs that look alike come from different tables or passages of the source. Starred links: 1 amine or outer side, 2 acyl side, 3 side chain; linkers in the order of their positions; H or OH if unused. Non-standard residues stand in square brackets, D forms with d. Residues, ends and D or L forms follow the SMILES beside them. Groups on a side chain read outwards from the residue. *: point of attachment. C18 diacid = O=C(O)CCCCCCCCCCCCCCCCC(=O)*; γGlu = O=C(O)[C@H](CCC(=O)[*:2])N[*:1]; εLys = N[C@@H](CCCCN[*:1])C(=O)[*:2]; Aib = CC(C)(N)C(=O)O
Legend:
human GIP receptor = target: T1, human GIP receptor (Homo sapiens, UniProt P48546); assay: In vitro functional potency, CRE luciferase reporter, whole BHK cells (hGIPR); type: cell-based; conditions: BHK CRE luc2P hGIPR cells
T1 construct: expressed in transfected cells; host or cells: BHK (parent line BHKTS13), clone BHK CRE luc2P hGIPR
T1 sequence (P48546 22-466): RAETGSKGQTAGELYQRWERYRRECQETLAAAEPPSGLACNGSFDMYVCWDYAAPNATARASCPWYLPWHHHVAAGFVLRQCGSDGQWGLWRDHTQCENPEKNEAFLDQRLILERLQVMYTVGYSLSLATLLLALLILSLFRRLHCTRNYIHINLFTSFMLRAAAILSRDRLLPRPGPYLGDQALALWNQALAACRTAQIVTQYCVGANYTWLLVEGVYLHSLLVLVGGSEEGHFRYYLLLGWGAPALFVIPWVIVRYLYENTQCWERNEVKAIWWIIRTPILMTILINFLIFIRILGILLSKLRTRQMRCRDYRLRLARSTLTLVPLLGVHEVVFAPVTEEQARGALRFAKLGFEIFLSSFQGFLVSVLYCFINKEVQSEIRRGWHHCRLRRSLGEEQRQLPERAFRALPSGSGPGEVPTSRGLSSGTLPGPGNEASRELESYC
Procedure: (§1) The in vitro functional potency is the measure of target receptor activation in a whole cell assay.
(§2) In vitro functional potency was determined by measuring the response of the target receptor in a reporter gene assay in individual cell lines. […] When the respective receptor is activated, it results in the production of cAMP, which in turn results in expression of the luciferase protein. When assay incubation is completed, luciferase substrate (luciferin) is added resulting in the enzymatic conversion of luciferin to oxyluciferin and producing bioluminescence. The luminescence is measured as the readout for the assay.
(§3) The cells lines used in these assays were BHK cells with BHKTS13 as a parent cell line. The cell lines were derived from a clone containing the CRE luciferase element and were established by further transfection with the respective human receptor to obtain the relevant cell line: BHK CRE luc2P hGLP-1R or BHK CRE luc2P hGIPR. The cells were cultured at 37° C. with 5% CO2 in Cell Culture Medium. They were aliquoted and stored in liquid nitrogen. The cells were kept in continuous culture and were seeded out the day before each assay.
(§4) GLP-1R Cell Culture Medium consisted of DMEM medium with 10% FBS, 500 µg/mL G418, and 300 µg/mL hygromycin. GIPR Cell Culture Medium consisted of DMEM medium with 10% FBS, 400 µg/mL G418, and 300 µg/mL hygromycin. Assay Buffer consisted of DMEM w/o phenol red, 10 mM Hepes, 1× Glutamax. 1% ovalbumin, and 0.1% Pluronic F-68 with the addition of HSA at twice the final assay concentration.
(§5) 1) Cells were plated at 5000 cells/well and incubated overnight in the assay plate. 2) Cells were washed once in DPBS. 3) Stocks of the test compounds and reference compounds in concentrations ranging from […] were diluted 1:150 in Assay Buffer. Compounds were then diluted 1:10 in column 1 of a 96 deep well dilution plate and then carried across the row creating a 3.5 fold, 12 point dilution curve. 4) Assay Buffer (50 μl aliquot) with or without HSA was added to each well in the assay plate. 5) A 50 μl aliquot of compound or blank was transferred from the dilution plate to the assay plate containing the Assay Buffer with or without HSA. 6) The assay plate was incubated for 3 h in a 5% CO2 incubator at 37° C. 7) The cells were washed once with DPBS. 8) A 100 μl aliquot of DPBS was added to each well of the assay plate. 9) A 100 μl aliquot of steadylite plus reagent (light sensitive) was added to each well of the assay plate. 10) Each assay plate was covered with aluminum foil to protect it from light and shaken at 250 RPM for 30 min at room temperature. 11) Each assay plate was read in a microtiter plate reader.
(§6) The data from the microtiter plate reader was first regressed in an Excel in order to calculate the x-axis, log scale concentrations based on the individual test compound's stock concentration and the dilutions of the assay. […] The software performs a non-linear regression (log(agonist) vs response). A minimum of two replicates was measured for each sample. The reported values are averages of the replicates.

human GLP-1 receptor = human GLP-1 receptor (Homo sapiens, UniProt P43220); assay: In vitro functional potency, CRE luciferase reporter, whole BHK cells (hGLP-1R); type: cell-based; parameters: expressed in transfected cells; host or cells: BHK (parent line BHKTS13), clone BHK CRE luc2P hGLP-1R; conditions: BHK CRE luc2P hGLP-1R cells
Procedure: as §1, §2, §3, §4, §5, §6

[1] = 0% HSA, read-out: hGIPR, CRE Luc 0% HSA EC50
[2] = hGIPR, CRE Luc 1% HSA EC50, 1% HSA
[3] = 0% HSA, read-out: hGLP-1R, CRE Luc 0% HSA EC50
[4] = hGLP-1R, CRE Luc 1% HSA EC50, 1% HSA

Chain of human GLP-1 receptor (P43220 24-463): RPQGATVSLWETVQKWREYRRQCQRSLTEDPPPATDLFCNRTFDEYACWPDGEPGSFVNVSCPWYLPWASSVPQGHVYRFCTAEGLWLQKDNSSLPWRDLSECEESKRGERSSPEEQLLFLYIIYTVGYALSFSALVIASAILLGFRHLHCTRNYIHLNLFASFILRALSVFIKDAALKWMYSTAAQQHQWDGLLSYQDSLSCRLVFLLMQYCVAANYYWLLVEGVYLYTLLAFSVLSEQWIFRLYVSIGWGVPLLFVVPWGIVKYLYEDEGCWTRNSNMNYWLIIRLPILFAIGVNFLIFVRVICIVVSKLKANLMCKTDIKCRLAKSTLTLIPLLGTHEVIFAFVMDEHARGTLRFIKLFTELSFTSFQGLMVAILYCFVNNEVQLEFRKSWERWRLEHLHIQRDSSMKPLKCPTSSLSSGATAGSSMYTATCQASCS

SMILES	pEC50 (human GIP receptor; [1])	pEC50 (human GIP receptor; [2])	pEC50 (human GLP-1 receptor; [3])	pEC50 (human GLP-1 receptor; [4])
CC(C)C[C@H](NC(=O)[C@H](CC(C)C)NC(=O)[C@H](Cc1c[nH]c2ccccc12)NC(=O)[C@H](CC(N)=O)NC(=O)[C@@H](NC(=O)[C@H](Cc1ccccc1)NC(=O)[C@H](CCC(=O)O)NC(=O)[C@H](CCC(N)=O)NC(=O)[C@H](C)NC(=O)[C@H](C)NC(=O)[C@H](CCC(N)=O)NC(=O)[C@H](CCCCNC(=O)[C@@H](N)CCCCNC(=O)[C@@H](N)CCCCNC(=O)CC[C@H](NC(=O)CCCCCCCCCCCCCCCCC(=O)O)C(=O)O)NC(=O)[C@H](CCC(=O)O)NC(=O)[C@H](CC(C)C)NC(=O)[C@H](Cc1ccc(O)cc1)NC(=O)[C@H](Cc1ccc(O)cc1)NC(=O)[C@H](CO)NC(=O)[C@H](Cc1ccc(O)cc1)NC(=O)[C@H](CC(=O)O)NC(=O)[C@H](CO)NC(=O)[C@@H](NC(=O)[C@H](Cc1ccccc1)NC(=O)[C@@H](NC(=O)CNC(=O)[C@H](CCC(=O)O)NC(=O)C(C)(C)NC(=O)[C@@H](N)Cc1ccc(O)cc1)[C@@H](C)O)[C@@H](C)O)C(C)C)C(=O)N[C@@H](C)C(=O)NCC(=O)NCC(=O)N1CCC[C@H]1C(=O)N[C@@H](CO)C(=O)N[C@@H](CO)C(=O)NCC(=O)N[C@@H](C)C(=O)N1CCC[C@H]1C(=O)N1CCC[C@H]1C(=O)N1CCC[C@H]1C(=O)N[C@@H](CO)C(N)=O [Compound 3] (H-Y[Aib]EGTFTSDYSYYLEK([εLys-εLys-γGlu-C18 diacid])QAAQEFVNWLLAGGPSSGAPPPS-NH2)	11.16	9.64	11.07	9.20
CC[C@H](C)[C@H](NC(=O)[C@H](Cc1ccccc1)NC(=O)[C@H](CCC(=O)O)NC(=O)[C@H](CCCNC(=N)N)NC(=O)[C@H](C)NC(=O)[C@H](C)NC(=O)[C@H](CCC(N)=O)NC(=O)[C@H](CCCCNC(=O)[C@@H](N)CCCCNC(=O)[C@@H](N)CCCCNC(=O)CC[C@H](NC(=O)CCCCCCCCCCCCCCCCC(=O)O)C(=O)O)NC(=O)[C@H](CCC(=O)O)NC(=O)[C@H](CC(C)C)NC(=O)[C@H](CC(C)C)NC(=O)[C@@H](NC(=O)[C@H](CO)NC(=O)[C@H](Cc1ccc(O)cc1)NC(=O)[C@H](CC(=O)O)NC(=O)[C@H](CO)NC(=O)[C@@H](NC(=O)[C@H](Cc1ccccc1)NC(=O)[C@@H](NC(=O)CNC(=O)[C@H](CCC(=O)O)NC(=O)C(C)(C)NC(=O)[C@@H](N)Cc1ccc(O)cc1)[C@@H](C)O)[C@@H](C)O)[C@@H](C)CC)C(=O)N[C@@H](CCC(N)=O)C(=O)N[C@@H](Cc1c[nH]c2ccccc12)C(=O)N[C@@H](CC(C)C)C(=O)N[C@@H](CC(C)C)C(=O)N[C@@H](C)C(=O)NCC(=O)NCC(=O)N1CCC[C@H]1C(=O)N[C@@H](CO)C(=O)N[C@@H](CO)C(=O)NCC(=O)N[C@@H](C)C(=O)N1CCC[C@H]1C(=O)N1CCC[C@H]1C(=O)N1CCC[C@H]1C(=O)N[C@@H](CO)C(=O)O [Compound 23] (H-Y[Aib]EGTFTSDYSILLEK([εLys-εLys-γGlu-C18 diacid])QAAREFIQWLLAGGPSSGAPPPS-OH)	11.17	9.87	11.39	9.93
CC[C@H](C)[C@H](NC(=O)[C@H](Cc1ccccc1)NC(=O)[C@H](CCC(=O)O)NC(=O)[C@H](CCCNC(=N)N)NC(=O)[C@H](C)NC(=O)[C@H](C)NC(=O)[C@H](CCC(N)=O)NC(=O)[C@H](CCC(=O)O)NC(=O)[C@H](CCC(=O)O)NC(=O)[C@H](CC(C)C)NC(=O)[C@H](Cc1ccc(O)cc1)NC(=O)[C@@H](NC(=O)[C@H](CO)NC(=O)[C@H](Cc1ccc(O)cc1)NC(=O)[C@H](CC(=O)O)NC(=O)[C@H](CO)NC(=O)[C@@H](NC(=O)[C@H](Cc1ccccc1)NC(=O)[C@@H](NC(=O)CNC(=O)[C@H](CCC(=O)O)NC(=O)C(C)(C)NC(=O)[C@@H](N)Cc1ccc(O)cc1)[C@@H](C)O)[C@@H](C)O)[C@@H](C)CC)C(=O)N[C@@H](CC(N)=O)C(=O)N[C@@H](Cc1c[nH]c2ccccc12)C(=O)N[C@@H](CC(C)C)C(=O)N[C@@H](CC(C)C)C(=O)N[C@@H](C)C(=O)NCC(=O)NCC(=O)N1CCC[C@H]1C(=O)N[C@@H](CO)C(=O)N[C@@H](CCCCNC(=O)[C@@H](N)CCCCNC(=O)[C@@H](N)CCCCNC(=O)CC[C@H](NC(=O)CCCCCCCCCCCCCCCCC(=O)O)C(=O)O)C(=O)NCC(=O)N[C@@H](C)C(=O)N1CCC[C@H]1C(=O)N1CCC[C@H]1C(=O)N1CCC[C@H]1C(=O)N[C@@H](CO)C(=O)O [Compound 42] (H-Y[Aib]EGTFTSDYSIYLEEQAAREFINWLLAGGPSK([εLys-εLys-γGlu-C18 diacid])GAPPPS-OH)	11.23	9.51	11.64	10.08
CC[C@H](C)[C@H](NC(=O)[C@H](CO)NC(=O)[C@H](Cc1ccc(O)cc1)NC(=O)[C@H](CC(=O)O)NC(=O)[C@H](CO)NC(=O)[C@@H](NC(=O)[C@H](Cc1ccccc1)NC(=O)[C@@H](NC(=O)CNC(=O)[C@H](CCC(=O)O)NC(=O)C(C)(C)NC(=O)[C@@H](N)Cc1ccc(O)cc1)[C@@H](C)O)[C@@H](C)O)C(=O)N[C@@H](CC(C)C)C(=O)N[C@@H](CC(C)C)C(=O)N[C@@H](CCC(=O)O)C(=O)N[C@@H](CCCCNC(=O)[C@@H](N)CCCCNC(=O)[C@@H](N)CCCCNC(=O)CC[C@H](NC(=O)CCCCCCCCCCCCCCCCC(=O)O)C(=O)O)C(=O)N[C@@H](CCC(N)=O)C(=O)N[C@@H](C)C(=O)N[C@@H](C)C(=O)N[C@@H](CCCNC(=N)N)C(=O)N[C@@H](CCC(=O)O)C(=O)N[C@@H](Cc1ccccc1)C(=O)N[C@H](C(=O)N[C@@H](CC(N)=O)C(=O)N[C@@H](Cc1c[nH]c2ccccc12)C(=O)N[C@@H](CC(C)C)C(=O)N[C@@H](CC(C)C)C(=O)N[C@@H](C)C(=O)NCC(=O)NCC(=O)N1CCC[C@H]1C(=O)N[C@@H](CO)C(=O)N[C@@H](CO)C(=O)NCC(=O)N[C@@H](C)C(=O)N1CCC[C@H]1C(=O)N1CCC[C@H]1C(=O)N1CCC[C@H]1C(=O)N[C@@H](CO)C(=O)O)C(C)C [Compound 22] (H-Y[Aib]EGTFTSDYSILLEK([εLys-εLys-γGlu-C18 diacid])QAAREFVNWLLAGGPSSGAPPPS-OH)	11.21	9.77	11.55	9.77

Source: US20220177538A1, “CO-AGONISTS AT GLP-1 AND GIP RECEPTORS SUITABLE FOR ORAL DELIVERY” (Novo Nordisk A/S, priority 2020, published 2022)
